Experiments:
Assay in all cases: relative viability (nuclei count vs DMSO), 5 days (fraction); higher = more cells survive
[1] = test system: LCLC-103H
Method in brief: (§1)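 Nuclei were stained with Hoechst during a one-step fixation (final 0.05% Triton X-100, 1% formaldehyde, 1 ug/ml Hoechst) carried out 5 days after dosing, then counted on 4× images. The cells, lung cancer lines in 1536-well plates, had been dosed by pin tool the day after seeding with one drug alone or a fixed anchor-drug dose plus five library-drug doses (not always all listed) in √10 steps. Relative viability is the nuclei count in treated wells divided by that in vehicle wells, and each value is the median of duplicate plates.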

[2] = test system: PC-14
Method in brief: as §1

[3] = test system: NCI-H596
Method in brief: as §1

[4] = test system: H3255
Method in brief: as §1

[5] = test system: NCI-H727
Method in brief: as §1

[6] = test system: LU99A
Method in brief: as §1

[7] = test system: NCI-H2228
Method in brief: as §1

[8] = test system: NCI-H23
Method in brief: as §1

[9] = test system: LC-2-ad
Method in brief: as §1

[10] = test system: NCI-H1563
Method in brief: as §1

[11] = test system: NCI-H1650
Method in brief: as §1

[12] = test system: 201T
Method in brief: as §1

[13] = test system: NCI-H460
Method in brief: as §1

[14] = test system: NCI-H2347
Method in brief: as §1

[15] = test system: PC-3 [JPC-3]
Method in brief: as §1

[16] = test system: A-427
Method in brief: as §1

[17] = test system: LCLC-97TM1
Method in brief: as §1

[18] = test system: HCC-44
Method in brief: as §1

[19] = test system: SW 1573
Method in brief: as §1

[20] = test system: LK-2
Method in brief: as §1

[21] = test system: COR-L23
Method in brief: as §1

## COc1nc(C)cnc1NS(=O)(=O)c1cccnc1-c1ccc(-c2nnco2)cc1 [Zibotentan] + C[C@@H](Oc1cc(-c2cnn(C3CCNCC3)c2)cnc1N)c1c(Cl)ccc(F)c1Cl [Crizotinib] (partner 1 µM)
[1]; first compound 0.08 µM
  relative viability: 0.932
[1]; first compound 0.253 µM
  relative viability: 0.965
[1]; first compound 0.8 µM
  relative viability: 0.97
[1]; first compound 2.53 µM
  relative viability: 1.05
[2]; first compound 0.08 µM
  relative viability: 0.907
[2]; first compound 0.253 µM
  relative viability: 0.882
[2]; first compound 0.8 µM
  relative viability: 0.968
[2]; first compound 2.53 µM
  relative viability: 0.899
[3]; first compound 0.08 µM
  relative viability: 0.942
[3]; first compound 0.253 µM
  relative viability: 0.898
[3]; first compound 0.8 µM
  relative viability: 0.989
[3]; first compound 2.53 µM
  relative viability: 0.957
[4]; first compound 0.08 µM
  relative viability: 0.846
[4]; first compound 0.253 µM
  relative viability: 0.841
[4]; first compound 0.8 µM
  relative viability: 0.975
[4]; first compound 2.53 µM
  relative viability: 0.963
[5]; first compound 0.08 µM
  relative viability: 0.985
[5]; first compound 0.253 µM
  relative viability: 0.825
[5]; first compound 0.8 µM
  relative viability: 0.806
[5]; first compound 2.53 µM
  relative viability: 0.844
[6]; first compound 0.08 µM
  relative viability: 0.537
[6]; first compound 0.253 µM
  relative viability: 0.527
[6]; first compound 0.8 µM
  relative viability: 0.645
[6]; first compound 2.53 µM
  relative viability: 0.617
[7]; first compound 0.08 µM
  relative viability: 0.548
[7]; first compound 0.253 µM
  relative viability: 0.369
[7]; first compound 0.8 µM
  relative viability: 0.451
[7]; first compound 2.53 µM
  relative viability: 0.441
[8]; first compound 0.08 µM
  relative viability: 0.54
[8]; first compound 0.253 µM
  relative viability: 0.552
[8]; first compound 0.8 µM
  relative viability: 0.565
[8]; first compound 2.53 µM
  relative viability: 0.593
[9]; first compound 0.08 µM
  relative viability: 0.511
[9]; first compound 0.253 µM
  relative viability: 0.448
[9]; first compound 0.8 µM
  relative viability: 0.493
[9]; first compound 2.53 µM
  relative viability: 0.469
[10]; first compound 0.08 µM
  relative viability: 0.821
[10]; first compound 0.253 µM
  relative viability: 0.512
[10]; first compound 0.8 µM
  relative viability: 0.874
[10]; first compound 2.53 µM
  relative viability: 0.895
[11]; first compound 0.08 µM
  relative viability: 1.05
[11]; first compound 0.8 µM
  relative viability: 1.01
[11]; first compound 2.53 µM
  relative viability: 0.925
[12]; first compound 0.08 µM
  relative viability: 1.03
[12]; first compound 0.253 µM
  relative viability: 0.992
[12]; first compound 0.8 µM
  relative viability: 1.04
[12]; first compound 2.53 µM
  relative viability: 1.07
[13]; first compound 0.08 µM
  relative viability: 1.2
[13]; first compound 0.8 µM
  relative viability: 1.01
[13]; first compound 2.53 µM
  relative viability: 0.903
[14]; first compound 0.08 µM
  relative viability: 0.706
[14]; first compound 0.253 µM
  relative viability: 0.476
[14]; first compound 0.8 µM
  relative viability: 0.715
[14]; first compound 2.53 µM
  relative viability: 0.672
[15]; first compound 0.08 µM
  relative viability: 0.951
[15]; first compound 0.253 µM
  relative viability: 0.967
[15]; first compound 0.8 µM
  relative viability: 0.955
[15]; first compound 2.53 µM
  relative viability: 0.966
[16]; first compound 0.08 µM
  relative viability: 0.858
[16]; first compound 0.253 µM
  relative viability: 0.91
[16]; first compound 0.8 µM
  relative viability: 0.904
[16]; first compound 2.53 µM
  relative viability: 0.84
[17]; first compound 0.08 µM
  relative viability: 0.272
[17]; first compound 0.253 µM
  relative viability: 0.374
[17]; first compound 0.8 µM
  relative viability: 0.351
[17]; first compound 2.53 µM
  relative viability: 0.435
[18]; first compound 0.08 µM
  relative viability: 0.777
[18]; first compound 0.253 µM
  relative viability: 0.761
[18]; first compound 0.8 µM
  relative viability: 0.872
[18]; first compound 2.53 µM
  relative viability: 0.772
[19]; first compound 0.08 µM
  relative viability: 0.923
[19]; first compound 0.253 µM
  relative viability: 0.745
[19]; first compound 0.8 µM
  relative viability: 0.822
[19]; first compound 2.53 µM
  relative viability: 0.856
[20]; first compound 0.08 µM
  relative viability: 0.259
[20]; first compound 0.253 µM
  relative viability: 0.237
[20]; first compound 0.8 µM
  relative viability: 0.253
[20]; first compound 2.53 µM
  relative viability: 0.241
[21]; first compound 0.08 µM
  relative viability: 0.838
[21]; first compound 0.253 µM
  relative viability: 0.65
[21]; first compound 0.8 µM
  relative viability: 0.68
[21]; first compound 2.53 µM
  relative viability: 0.758

Source: the supplement of paper PMC10307832
